{
  "source": "patent US20250255867A1",
  "about": "(Kadmon Corporation, LLC, priority 2022, published 2025)",
  "key": {"[1]": {"system": "subjects with cGVHD", "assay": "Example 2 phase II randomized study: cGVHD response per 2014 NIH Consensus Criteria (best ORR, organ ORR, DOR, time to response)", "format": "in vivo, human", "details": "for Best ORR: mITT", "experimental": "(§1) All responses were assessed by the study site investigators."}, "[2]": {"system": "subjects with cGVHD", "assay": "Example 2: failure-free survival, overall survival, NRM, relapse", "format": "in vivo, human", "details": "for FFS at 6 mo (95% CI) / FFS at 12 mo (95% CI): mITT population", "experimental": "as §1"}, "[3]": {"assay": "Example 2: safety (AE, SAE, relative dose intensity)", "format": "in vivo", "details": "200 mg daily (n = 66)", "experimental": "as §1"}, "[4]": {"details": "200 mg BID (n = 66), 42 with organ involved"}, "[5]": {"details": "200 mg BID (n = 66), 49 with organ involved"}, "[6]": {"details": "200 mg QD (n = 66), 19 with organ involved"}, "[7]": {"details": "200 mg daily (n = 66), mITT population"}, "[8]": {"details": "200 mg twice daily (n = 66), mITT population"}, "[9]": {"details": "Total (N = 132), 100 with organ involved"}, "[10]": {"details": "Total (N = 132), mITT population"}},
  "data": [
    {"smiles": "CC(C)NC(=O)COc1cccc(-c2nc(Nc3ccc4[nH]ncc4c3)c3ccccc3n2)c1", "note": "[Belumosudil, 2-{3-[4-(1H-indazol-5-ylamino)-2-quinazolinyl]phenoxy}-N-(propan-2-yl) acetamide]", "values": [
      {"measurement": "PR, Liver", "setting": "[1]; 200 mg BID (n = 66), 4 with organ involved", "result": "0 n (%)"},
      {"measurement": "PR, Upper GI", "setting": "[1]; 200 mg BID (n = 66), 10 with organ involved", "result": "0 n (%)"},
      {"measurement": "PR, Esophagus", "setting": "[1]; 200 mg BID (n = 66), 12 with organ involved", "result": "0 n (%)"},
      {"measurement": "CR, Mouth", "setting": "[1]; [4]", "result": "17 (41) n (%)"},
      {"measurement": "ORR, Mouth", "setting": "[1]; [4]", "result": "24 (57) n (%)"},
      {"measurement": "CR, Eyes", "setting": "[1]; [5]", "result": "6 (12) n (%)"},
      {"measurement": "ORR, Joints and fascia", "setting": "[1]; [5]", "result": "33 (67) n (%)"},
      {"measurement": "PR, Skin", "setting": "[1]; 200 mg BID (n = 66), 55 with organ involved", "result": "13 (24) n (%)"},
      {"measurement": "PR, Lower GI", "setting": "[1]; 200 mg QD (n = 66), 6 with organ involved", "result": "0 n (%)"},
      {"measurement": "ORR, Upper GI", "setting": "[1]; 200 mg QD (n = 66), 13 with organ involved", "result": "8 (62) n (%)"},
      {"measurement": "CR, Esophagus", "setting": "[1]; [6]", "result": "9 (47) n (%)"},
      {"measurement": "PR, Esophagus", "setting": "[1]; [6]", "result": "0 n (%)"},
      {"measurement": "CR, responses occurring within 6 mo of treatment", "setting": "[1]; [7]", "result": "2 (3) n (%)"},
      {"measurement": "CR, responses occurring within 12 mo of treatment", "setting": "[1]; [7]", "result": "4 (6) n (%)"},
      {"measurement": "ORR for responses occurring within 6 mo of treatment", "setting": "[1]; [7]", "result": "47 (71) n (%)"},
      {"measurement": "Best ORR", "setting": "[1]; 200 mg daily", "result": 74, "unit": "%"},
      {"measurement": "CR, responses occurring within 6 mo of treatment", "setting": "[1]; [8]", "result": "1 (2) n (%)"},
      {"measurement": "CR, responses occurring within 12 mo of treatment", "setting": "[1]; [8]", "result": "2 (3) n (%)"},
      {"measurement": "ORR", "setting": "[1]; [8]", "result": "51 (77) n (%)"},
      {"measurement": "ORR for responses occurring within 12 mo of treatment", "setting": "[1]; [8]", "result": "50 (76) n (%)"},
      {"measurement": "PR, responses occurring within 6 mo of treatment", "setting": "[1]; [8]", "result": "47 (71) n (%)"},
      {"measurement": "PR, responses occurring within 12 mo of treatment", "setting": "[1]; [8]", "result": "48 (73) n (%)"},
      {"measurement": "Best ORR", "setting": "[1]; 200 mg twice daily", "result": 77, "unit": "%"},
      {"measurement": "Median increase in FEV1, lung CR based on normalization of FEV1", "setting": "[1]; 3 subjects, range, 18-25", "result": 23, "unit": "%"},
      {"measurement": "PR, Esophagus", "setting": "[1]; Total (N = 132), 31 with organ involved", "result": "0 n (%)"},
      {"measurement": "CR, Eyes", "setting": "[1]; Total (N = 132), 97 with organ involved", "result": "14 (14) n (%)"},
      {"measurement": "CR, Joints and fascia", "setting": "[1]; [9]", "result": "20 (20) n (%)"},
      {"measurement": "ORR, Joints and fascia", "setting": "[1]; [9]", "result": "71 (71) n (%)"},
      {"measurement": "PR, Joints and fascia", "setting": "[1]; [9]", "result": "51 (51) n (%)"},
      {"measurement": "CR, Skin", "setting": "[1]; Total (N = 132), 110 with organ involved", "result": "18 (16) n (%)"},
      {"measurement": "CR, responses occurring within 6 mo of treatment", "setting": "[1]; [10]", "result": "3 (2) n (%)"},
      {"measurement": "CR, responses occurring within 12 mo of treatment", "setting": "[1]; [10]", "result": "6 (5) n (%)"},
      {"measurement": "PR, responses occurring within 6 mo of treatment", "setting": "[1]; [10]", "result": "92 (70) n (%)"},
      {"measurement": "PR, responses occurring within 12 mo of treatment", "setting": "[1]; [10]", "result": "93 (71) n (%)"},
      {"measurement": "Best ORR in subjects refractory to their last lines of therapy", "setting": "[1]; in vivo", "result": 75, "unit": "%"},
      {"measurement": "ORR, prior ruxolitinib therapy subgroup", "setting": "[1]; pooled arms, n=38", "result": 68, "unit": "%"},
      {"measurement": "ORR, prior ibrutinib therapy subgroup", "setting": "[1]; pooled arms, n=46", "result": 74, "unit": "%"},
      {"measurement": "Median increase in FEV1, all subjects achieving lung PR", "setting": "[1]; range, 0-15", "result": 10, "unit": "%"},
      {"measurement": "Overall median time to response", "setting": "[1]; range, 4-66", "result": 5, "unit": "weeks"},
      {"measurement": "Median DOR", "setting": "[1]; responder population", "result": 54, "unit": "weeks"},
      {"measurement": "FFS at 6 mo (95% CI)", "setting": "[2]; 200 mg daily (n = 66)", "result": "73 (61-83) %"},
      {"measurement": "FFS at 12 mo (95% CI)", "setting": "[2]; 200 mg daily (n = 66)", "result": "57 (44-68) %"},
      {"measurement": "FFS at 6 mo (95% CI)", "setting": "[2]; 200 mg twice daily (n = 66)", "result": "76 (63-84) %"},
      {"measurement": "FFS at 12 mo (95% CI)", "setting": "[2]; 200 mg twice daily (n = 66)", "result": "56 (43-67) %"},
      {"measurement": "Overall FFS rate at 12 months", "setting": "[2]; 95% CI, 47-64", "result": 56, "unit": "%"},
      {"measurement": "Overall FFS rate at 6 months", "setting": "[2]; 95% CI, 66-81", "result": 75, "unit": "%"},
      {"measurement": "2-year OS rate", "setting": "[2]; 95% CI, 82-93", "result": 89, "unit": "%"},
      {"measurement": "Failure event: initiation of a new systemic cGVHD therapy", "setting": "[2]; in vivo", "result": 38, "unit": "%"},
      {"measurement": "Relapse rate", "setting": "[2]; in vivo", "result": 3, "unit": "%"},
      {"measurement": "ALT increased", "setting": "[3]", "result": "4 (6) n (%)"},
      {"measurement": "AST increased", "setting": "[3]", "result": "5 (8) n (%)"},
      {"measurement": "Any AE", "setting": "[3]", "result": "65 (99) n (%)"},
      {"measurement": "Bilirubin conjugated increased", "setting": "[3]", "result": "1 (2) n (%)"},
      {"measurement": "Blood alkaline phosphatase increased", "setting": "[3]", "result": "4 (6) n (%)"},
      {"measurement": "Cough, all grades", "setting": "[3]", "result": "20 (30) n (%)"},
      {"measurement": "Deaths", "setting": "[3]", "result": "8 (12) n (%)"},
      {"measurement": "Diarrhea, all grades", "setting": "[3]", "result": "23 (35) n (%)"},
      {"measurement": "Drug-related AEs", "setting": "[3]", "result": "49 (74) n (%)"},
      {"measurement": "Drug-related SAEs", "setting": "[3]", "result": "5 (8) n (%)"},
      {"measurement": "Dyspnea, all grades", "setting": "[3]", "result": "21 (32) n (%)"},
      {"measurement": "Fatigue, all grades", "setting": "[3]", "result": "30 (46) n (%)"},
      {"measurement": "GGT increased", "setting": "[3]", "result": "6 (9) n (%)"},
      {"measurement": "Grade ≥3 AEs", "setting": "[3]", "result": "37 (56) n (%)"},
      {"measurement": "Headache, all grades", "setting": "[3]", "result": "13 (20) n (%)"},
      {"measurement": "Hyperglycemia, Grade ≥3", "setting": "[3]", "result": "3 (5) n (%)"},
      {"measurement": "Hypertension, Grade ≥3", "setting": "[3]", "result": "4 (6) n (%)"},
      {"measurement": "Hypoalbuminemia", "setting": "[3]", "result": "2 (3) n (%)"},
      {"measurement": "LFT increased", "setting": "[3]", "result": "1 (2) n (%)"},
      {"measurement": "Liver-related AEs", "setting": "[3]", "result": "12 (18) n (%)"},
      {"measurement": "Muscle spasms, all grades", "setting": "[3]", "result": "13 (20) n (%)"},
      {"measurement": "Nausea, all grades", "setting": "[3]", "result": "23 (35) n (%)"},
      {"measurement": "Peripheral edema, all grades", "setting": "[3]", "result": "17 (26) n (%)"},
      {"measurement": "Pneumonia, Grade ≥3", "setting": "[3]", "result": "6 (9) n (%)"},
      {"measurement": "SAEs", "setting": "[3]", "result": "27 (41) n (%)"},
      {"measurement": "Transaminases increased", "setting": "[3]", "result": "1 (2) n (%)"},
      {"measurement": "Upper respiratory tract infection, all grades", "setting": "[3]", "result": "17 (26) n (%)"}
    ]}
  ]
}
